Like-named read-outs stand apart in the source and are kept apart here.

This test deals with IL-13 release from KU812 cells. Kind of test: IL-13 release assay in KU812 cells (PMA + ionomycin, IL-13 ELISA). The test is classed as cell-based, human.

One may read the inhibition as the change of the read-out against control, counted positive when it falls. For `C[C@@H]1C[C@H]2[C@@H]3CCC4=CC(=O)C=C[C@]4(C)[C@@]3(F)[C@@H](O)C[C@]2(C)[C@@]1(O)C(=O)CO` [Dexamethasone], the inhibition at 10 µM (Homo sapiens, positive control 10 μM, read-out: Percentages of IL-13 inhibition) is 52%.
Consider `O=c1c(O)c(-c2ccc(O)c(O)c2)oc2cc(O)ccc12` [Fistein, Fisetin], for which, for the setting “Homo sapiens, 1 μM, read-out: Percentages of IL-13 inhibition”, the inhibition at 1 µM turned out to be 26.5%. For the same molecule, for the setting “Homo sapiens, 10 μM (Fistein), read-out: Percentages of IL-13 inhibition”, the inhibition at 10 µM was 17.3%. The inhibition at 100 µM (Homo sapiens, 100 μM, read-out: Percentages of IL-13 inhibition) came out at 35.7%. In addition, the “IL-13 release / inhibition, in words” value (first screening (Examples 1 and 3)) is recorded as “the inhibition percentages were relatively low”.

(Values after patent US10967031B2, “Synergistic herbal compositions with prebiotic properties for treatment of skin infections, allergies and inflammation” (priority 2010, dated 2021).)
